Broadly, the Kd is the concentration at which binding is half-saturated.

Several values for one entry are separate records, joined by “and”; a condition that tells them apart may be missing. Identical values can stand only once. Like-named read-outs stand apart in the source and are kept apart here.

The text below walks through data of article PMC11925246 (Journal of Bacteriology, 2025).

Test [1] addresses periplasmic domain of Rsc1598 (Ralstonia pseudosolanacearum, UniProt Q8XZ08). The experiment in a line: biochemical. Format: binding, R. pseudosolanacearum OE1-1.
The test system of test [2] is hrpB expression. Format: cell-based, R. pseudosolanacearum. To be noted: hrpB-lacZ resting cells, 25°C; for Induction of hrpB expression by organic acids: organic acid 0.1 mM, 20 h (Fig. 5); for Induction of hrpB expression by sugars: sugar 0.01%, 20 h (Fig. 6).
Test [3] relates to hrpB expression. Format: cell-based, R. pseudosolanacearum. To be noted: malic acid 0.5 mM or sucrose 0.01%, quarter-strength M63 with 0.25% glucose, 28 °C, 5 h (Fig. S4).

Sequence of periplasmic domain of Rsc1598 (Q8XZ08 99-319 limits assumed): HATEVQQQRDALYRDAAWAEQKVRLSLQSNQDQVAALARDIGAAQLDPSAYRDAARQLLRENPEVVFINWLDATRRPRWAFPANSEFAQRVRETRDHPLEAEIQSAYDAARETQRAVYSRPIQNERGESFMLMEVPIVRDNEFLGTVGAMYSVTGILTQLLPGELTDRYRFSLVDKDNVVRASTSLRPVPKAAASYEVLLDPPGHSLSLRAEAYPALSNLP

Turning to `O=C(O)CC(O)(CC(=O)O)C(=O)O` [Citric acid, citric acid], the Kd in test [1] (Kd, Average of titrations, 25°C, pH 7.6) was found to be 155 ± 80.7 µM; in test [1] (Kd, ITC single titration, ligand 4 mM, 25°C, 50 mM sodium phosphate buffer pH 7.6, protein 40 µM) it was 137 µM; in test [1] (Kd, ITC single titration, ligand 5 mM, 25°C, 50 mM sodium phosphate buffer pH 7.6, protein 40 µM), 84.5 µM; in test [1] (Kd, ITC single titration, ligand 6 mM, 25°C, 50 mM sodium phosphate buffer pH 7.6, protein 40 µM), 243 µM.

On to `O=CO` [Formic acid, formic acid], for which the Kd in test [1] (ITC single titration, ligand 5 mM, 25°C, 50 mM sodium phosphate buffer pH 7.6, protein 40 µM, read-out: Kd) came out at 71.5 µM; in test [1] (ITC single titration, ligand 6 mM, 25°C, 50 mM sodium phosphate buffer pH 7.6, protein 40 µM, read-out: Kd) it was 231 µM.

For `O=C(O)/C=C/C(=O)O` [Fumaric acid, fumaric acid], the Kd in test [1] (Kd) was 47 µM and 56.3 µM; in test [1] (pH 7.6), “smaller than that of malic acid”.

As to `O=C(O)[C@@H]1CCC(O)=N1` [L-pyroglutamic acid], in test [1] (Kd), the Kd is 41 µM and 43.2 µM and 194 µM. Besides, in the test with hrpB expression [2], the “Induction of hrpB expression by organic acids” value (shortened to “Induction … by organic acids”) is reported as “induced high levels of hrpB expression”.

As for `O=C(O)CC(O)C(=O)O` (centres unmarked) [Malic acid, malic acid], the Kd in test [1] (Kd) was 68.4 µM and 64.3 µM and 89 µM and 65 µM. In addition, in the test with hrpB expression [2], the “Induction … by organic acids” value was “induced high levels of hrpB expression”. Besides, the “Induction of hrpB-lacZ expression in growing cells” value in the test with hrpB expression [3] is recorded as “induced hrpB expression”.

With `O=C(O)C(=O)O` [Oxalic acid, oxalic acid], the Kd in test [1] (Kd) was 229 µM and 151 µM.

`O=C(O)CCC(=O)O` [Succinic acid, succinic acid]: the Kd in test [1] (Kd) was 29.5 µM and 190 µM. For the same compound, in the test on hrpB expression [2], the “Induction … by organic acids” value is “induced high levels of hrpB expression”.

As for `O=C(CO)[C@@H](O)[C@H](O)[C@H](O)CO` [fructose], the “Induction of hrpB expression by sugars” value with hrpB expression [2] is “induced hrpB expression”.

With `OC[C@H]1OC(O)[C@H](O)[C@@H](O)[C@@H]1O` (some centres unmarked) [glucose], the “Induction of hrpB expression by sugars” value with hrpB expression [2] is listed as “induced hrpB expression”.

With `OC[C@H]1O[C@@](CO)(O[C@H]2O[C@H](CO)[C@@H](O)[C@H](O)[C@H]2O)[C@@H](O)[C@@H]1O` [sucrose], the “Induction of hrpB expression by sugars” value in the test on hrpB expression [2] was “the most effective sugar”. The “Induction of hrpB-lacZ expression in growing cells” value with hrpB expression [3] is reported as “minimal induction”.
